Test results as given in patent publication US20250171495A1, “MUTLI-TARGETED SERINE PROTEASE INHIBITORS FOR TREATMENT OF CANCER AND VIRAL INFECTION” (Washington University, priority 2023, published 2025).

Experiments:
Assay type in all cases: biochemical
TMPRSS2 = TMPRSS2 (Homo sapiens, UniProt O15393); experiment: PS-SCL / HyCoSuL substrate specificity screening, TMPRSS2; details: for P2 Position Substrate Activity for TMPRSS2 (percent substrate cleavage/proteolysis): residue fixed at P2 position of substrate library; for P3 Position Substrate Activity for TMPRSS2 (percent substrate cleavage/proteolysis) / P3 Position Various Amino Acids Substrate Activity, TMPRSS2 (percent substrate cleavage/proteolysis): residue fixed at P3 position of substrate library
Chain of TMPRSS2 (O15393 whole entry): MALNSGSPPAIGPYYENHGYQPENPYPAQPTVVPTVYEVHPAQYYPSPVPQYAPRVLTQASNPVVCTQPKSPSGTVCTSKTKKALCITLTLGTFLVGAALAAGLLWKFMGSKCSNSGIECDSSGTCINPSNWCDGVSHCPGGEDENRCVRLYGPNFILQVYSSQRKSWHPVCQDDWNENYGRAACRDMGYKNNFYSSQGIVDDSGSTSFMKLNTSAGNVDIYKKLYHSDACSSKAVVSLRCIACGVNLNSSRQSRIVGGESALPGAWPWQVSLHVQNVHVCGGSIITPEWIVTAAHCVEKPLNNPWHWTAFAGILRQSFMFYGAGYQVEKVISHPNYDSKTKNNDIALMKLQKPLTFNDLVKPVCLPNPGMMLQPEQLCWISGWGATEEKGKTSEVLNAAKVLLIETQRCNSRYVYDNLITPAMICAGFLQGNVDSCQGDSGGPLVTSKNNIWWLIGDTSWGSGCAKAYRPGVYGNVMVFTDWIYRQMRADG

matriptase = target: T1, matriptase (Homo sapiens, UniProt Q9Y5Y6); experiment: HyCoSuL P4-P2 substrate specificity screening, matriptase; details: for P2 Position Substrate Activity for matriptase (percent substrate cleavage/proteolysis): residue fixed at P2 position; for P3 Position Various Amino Acids Substrate Activity, matriptase (percent substrate cleavage/proteolysis): residue fixed at P3 position of substrate library; for P3 Position Substrate Activity for matriptase (percent substrate cleavage/proteolysis): residue fixed at P3 position; for P4 Position Various Amino Acids Substrate Activity, matriptase (percent substrate proteolysis/cleavage): residue fixed at P4 position of substrate library
T1 sequence (Q9Y5Y6 1-855): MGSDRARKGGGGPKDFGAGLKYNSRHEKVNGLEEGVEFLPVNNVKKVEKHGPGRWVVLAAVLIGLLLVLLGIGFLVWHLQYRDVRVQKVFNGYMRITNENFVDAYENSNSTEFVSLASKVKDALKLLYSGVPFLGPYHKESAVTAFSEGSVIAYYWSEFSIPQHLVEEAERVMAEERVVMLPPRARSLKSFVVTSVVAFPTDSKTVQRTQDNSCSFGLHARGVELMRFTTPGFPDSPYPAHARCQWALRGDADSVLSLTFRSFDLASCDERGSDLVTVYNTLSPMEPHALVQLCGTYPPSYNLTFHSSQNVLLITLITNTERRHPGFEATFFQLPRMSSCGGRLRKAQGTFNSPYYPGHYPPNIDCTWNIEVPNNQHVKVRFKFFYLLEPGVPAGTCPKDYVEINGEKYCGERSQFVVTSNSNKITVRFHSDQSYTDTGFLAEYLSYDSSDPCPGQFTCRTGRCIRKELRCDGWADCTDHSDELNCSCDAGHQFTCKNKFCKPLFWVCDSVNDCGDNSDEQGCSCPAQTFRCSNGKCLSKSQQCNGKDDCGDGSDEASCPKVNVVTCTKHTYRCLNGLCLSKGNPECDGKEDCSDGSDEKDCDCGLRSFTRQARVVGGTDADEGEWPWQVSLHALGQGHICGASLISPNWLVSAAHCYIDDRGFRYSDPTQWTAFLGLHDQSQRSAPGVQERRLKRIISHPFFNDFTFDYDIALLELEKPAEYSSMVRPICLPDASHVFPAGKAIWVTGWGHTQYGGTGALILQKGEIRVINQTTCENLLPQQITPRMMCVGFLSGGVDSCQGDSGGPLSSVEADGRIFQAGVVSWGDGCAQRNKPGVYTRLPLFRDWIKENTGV

hepsin = target: T2, hepsin (Homo sapiens, UniProt P05981); experiment: HyCoSuL P4-P2 substrate specificity screening, hepsin; details: for P2 Position Substrate Activity for hepsin (percent substrate cleavage/proteolysis): residue fixed at P2 position; for P3 Position Substrate Activity for hepsin (percent substrate cleavage/proteolysis): residue fixed at P3 position; for P4 Position Various Amino Acids Substrate Activity, hepsin (percent substrate proteolysis/cleavage): residue fixed at P4 position of substrate library; for P3 Position Various Amino Acids Substrate Activity, hepsin (percent substrate cleavage/proteolysis): residue fixed at P3 position of substrate library
T2 construct: purchased R&D Systems 4776-SE-010
T2 sequence (P05981 163-417 limits assumed): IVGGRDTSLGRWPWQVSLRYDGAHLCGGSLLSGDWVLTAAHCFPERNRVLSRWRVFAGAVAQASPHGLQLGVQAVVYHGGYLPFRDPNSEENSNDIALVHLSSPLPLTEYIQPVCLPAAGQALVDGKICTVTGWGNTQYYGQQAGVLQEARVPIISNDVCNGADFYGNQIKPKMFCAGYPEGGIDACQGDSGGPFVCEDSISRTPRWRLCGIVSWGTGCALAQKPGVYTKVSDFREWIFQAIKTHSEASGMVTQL
T2 sequence (P05981 1-162 partner limits assumed): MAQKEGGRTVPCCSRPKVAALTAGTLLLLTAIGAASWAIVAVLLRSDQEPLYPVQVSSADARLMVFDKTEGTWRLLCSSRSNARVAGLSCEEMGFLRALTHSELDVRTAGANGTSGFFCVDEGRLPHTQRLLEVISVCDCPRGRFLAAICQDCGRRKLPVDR

HGFA = target: T3, HGFA (Homo sapiens, UniProt Q04756); experiment: HyCoSuL P4-P2 substrate specificity screening, HGFA; details: for P2 Position Substrate Activity for HGFA (percent substrate cleavage/proteolysis): residue fixed at P2 position; for P3 Position Substrate Activity for HGFA (percent substrate cleavage/proteolysis): residue fixed at P3 position; for P4 Position Various Amino Acids Substrate Activity, HGFA (percent substrate proteolysis/cleavage): residue fixed at P4 position of substrate library; for P3 Position Various Amino Acids Substrate Activity, HGFA (percent substrate cleavage/proteolysis): residue fixed at P3 position of substrate library
T3 sequence (Q04756 373-655): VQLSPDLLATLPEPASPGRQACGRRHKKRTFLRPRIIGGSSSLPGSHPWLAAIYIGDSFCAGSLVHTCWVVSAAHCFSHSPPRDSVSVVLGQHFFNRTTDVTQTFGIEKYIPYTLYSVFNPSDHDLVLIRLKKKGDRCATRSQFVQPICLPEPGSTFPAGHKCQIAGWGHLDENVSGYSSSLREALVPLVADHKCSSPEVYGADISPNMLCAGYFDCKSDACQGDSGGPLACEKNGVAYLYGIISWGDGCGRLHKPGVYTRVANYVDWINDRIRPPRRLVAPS

[1] = best recognized amino acid set to 100%
[2] = residue fixed at P4 position of substrate library
[3] = P1-Arg HyCoSuL, 100 μM, best recognized amino acid set to 100%
[4] = residue fixed at P4 position, P1-Arg HyCoSuL, 100 μM, best recognized amino acid set to 100%

D-Lys
P2 Position Substrate Activity for TMPRSS2 (percent substrate cleavage/proteolysis) (TMPRSS2; [1]): 0.00%
P3 Position Substrate Activity for TMPRSS2 (percent substrate cleavage/proteolysis) (TMPRSS2; [1]): 0.00%
P4 Position Various Amino Acids Substrate Activity, TMPRSS2 (percent substrate proteolysis/cleavage) (TMPRSS2; [2]): 16.31%
P2 Position Substrate Activity for matriptase (percent substrate cleavage/proteolysis) (matriptase; [3]): 0%
P3 Position Various Amino Acids Substrate Activity, matriptase (percent substrate cleavage/proteolysis) (matriptase): 15%
P3 Position Substrate Activity for matriptase (percent substrate cleavage/proteolysis) (matriptase; [3]): 14.70%
P4 Position Various Amino Acids Substrate Activity, matriptase (percent substrate proteolysis/cleavage) (matriptase): 14%
P2 Position Substrate Activity for hepsin (percent substrate cleavage/proteolysis) (hepsin; [3]): 0.00%
P3 Position Substrate Activity for hepsin (percent substrate cleavage/proteolysis) (hepsin; [3]): 64.56%
P4 Position Various Amino Acids Substrate Activity, hepsin (percent substrate proteolysis/cleavage) (hepsin): 49.84%
P2 Position Substrate Activity for HGFA (percent substrate cleavage/proteolysis) (HGFA; [3]): 0.00%
P3 Position Substrate Activity for HGFA (percent substrate cleavage/proteolysis) (HGFA; [3]): 21.11%
P4 Position Various Amino Acids Substrate Activity, HGFA (percent substrate proteolysis/cleavage) (HGFA): 17.66%

N[C@@H](CCCCOCc1ccccc1)C(=O)O [L-Nle(O-Bzl)]
P2 Position Substrate Activity for TMPRSS2 (percent substrate cleavage/proteolysis) (TMPRSS2; [1]): 52.14%
P3 Position Substrate Activity for TMPRSS2 (percent substrate cleavage/proteolysis) (TMPRSS2; [1]): 71.88%
P4 Position Substrate Activity for TMPRSS2 (percent substrate cleavage/proteolysis) (TMPRSS2; residue fixed at P4 position of substrate library, best recognized amino acid set to 100%): 63.90%
P2 Position Substrate Activity for matriptase (percent substrate cleavage/proteolysis) (matriptase; [3]): 0%
P3 Position Various Amino Acids Substrate Activity, matriptase (percent substrate cleavage/proteolysis) (matriptase): 75%
P3 Position Substrate Activity for matriptase (percent substrate cleavage/proteolysis) (matriptase; [3]): 75.40%
P4 Position Various Amino Acids Substrate Activity, matriptase (percent substrate proteolysis/cleavage) (matriptase): 49%
P4 Position Substrate Activity for matriptase (percent substrate cleavage/proteolysis) (matriptase; [4]): 48.54%
P2 Position Substrate Activity for hepsin (percent substrate cleavage/proteolysis) (hepsin; [3]): 0.00%
P3 Position Substrate Activity for hepsin (percent substrate cleavage/proteolysis) (hepsin; [3]): 82.17%
P4 Position Substrate Activity for hepsin (percent substrate cleavage/proteolysis) (hepsin; [4]): 91.83%
P2 Position Substrate Activity for HGFA (percent substrate cleavage/proteolysis) (HGFA; [3]): 0.00%
P3 Position Substrate Activity for HGFA (percent substrate cleavage/proteolysis) (HGFA; [3]): 30.67%
P4 Position Substrate Activity for HGFA (percent substrate cleavage/proteolysis) (HGFA; [4]): 16.90%

L-His
P2 Position Substrate Activity for TMPRSS2 (percent substrate cleavage/proteolysis) (TMPRSS2; [1]): 15.38%
P3 Position Various Amino Acids Substrate Activity, TMPRSS2 (percent substrate cleavage/proteolysis) (TMPRSS2): 26.27%
P4 Position Various Amino Acids Substrate Activity, TMPRSS2 (percent substrate proteolysis/cleavage) (TMPRSS2; [2]): 24.98%
P2 Position Substrate Activity for matriptase (percent substrate cleavage/proteolysis) (matriptase; [3]): 30%
P3 Position Various Amino Acids Substrate Activity, matriptase (percent substrate cleavage/proteolysis) (matriptase): 17%
P4 Position Various Amino Acids Substrate Activity, matriptase (percent substrate proteolysis/cleavage) (matriptase): 10%
P2 Position Substrate Activity for hepsin (percent substrate cleavage/proteolysis) (hepsin; [3]): 31.24%
P3 Position Various Amino Acids Substrate Activity, hepsin (percent substrate cleavage/proteolysis) (hepsin): 43.05%
P4 Position Various Amino Acids Substrate Activity, hepsin (percent substrate proteolysis/cleavage) (hepsin): 25.35%
P2 Position Substrate Activity for HGFA (percent substrate cleavage/proteolysis) (HGFA; [3]): 4.00%
P3 Position Various Amino Acids Substrate Activity, HGFA (percent substrate cleavage/proteolysis) (HGFA): 11.93%
P4 Position Various Amino Acids Substrate Activity, HGFA (percent substrate proteolysis/cleavage) (HGFA): 8.90%

N[C@@H](Cc1ccc(F)cc1)C(=O)O [L-Phe(4-F)]
P2 Position Substrate Activity for TMPRSS2 (percent substrate cleavage/proteolysis) (TMPRSS2; [1]): 100.00%
P3 Position Various Amino Acids Substrate Activity, TMPRSS2 (percent substrate cleavage/proteolysis) (TMPRSS2): 14.82%
P4 Position Various Amino Acids Substrate Activity, TMPRSS2 (percent substrate proteolysis/cleavage) (TMPRSS2; [2]): 21.80%
P2 Position Substrate Activity for matriptase (percent substrate cleavage/proteolysis) (matriptase; [3]): 65%
P3 Position Various Amino Acids Substrate Activity, matriptase (percent substrate cleavage/proteolysis) (matriptase): 11%
P4 Position Various Amino Acids Substrate Activity, matriptase (percent substrate proteolysis/cleavage) (matriptase): 8%
P2 Position Substrate Activity for hepsin (percent substrate cleavage/proteolysis) (hepsin; [3]): 32.86%
P3 Position Various Amino Acids Substrate Activity, hepsin (percent substrate cleavage/proteolysis) (hepsin): 5.16%
P4 Position Various Amino Acids Substrate Activity, hepsin (percent substrate proteolysis/cleavage) (hepsin): 27.78%
P2 Position Substrate Activity for HGFA (percent substrate cleavage/proteolysis) (HGFA; [3]): 4.84%
P3 Position Various Amino Acids Substrate Activity, HGFA (percent substrate cleavage/proteolysis) (HGFA): 15.01%
P4 Position Various Amino Acids Substrate Activity, HGFA (percent substrate proteolysis/cleavage) (HGFA): 11.22%
